# From patent US6897244B2, “Dihydronootkatone and tetrahydronootkatone as repellents to arthropods” (Board of Supervisors of Louisiana State University and …, priority 2002, dated 2005)
# What was measured:
# cockroaches = details: previously discovered, U.S. Ser. No. 09/932,555; cited from earlier work
# ticks = details: previously discovered, U.S. Ser. No. 09/932,555; cited from earlier work
# ants = details: previously discovered, U.S. Ser. No. 09/932,555; cited from earlier work
# fleas = details: previously demonstrated, U.S. Ser. No. 09/932,555; cited from earlier work
# [1] = system: Formosan subterranean termites; test: Petri dish treated/untreated sand bioassay for repelling activity against termites; assay type: in vivo, Coptotermes formosanus; set-up: key to percent of termites on untreated sand vs expected value of 50% (Chi-Square, p≦0.05): “−” indicates the test was not significantly different from the expected value; “+” indicates the test was significantly different from the expected value
# Description: A carton nest (colony A) of Formosan subterranean termites was collected in Algiers, Louisiana in November 1997, and held in 250-liter cans. The cans were filled with pine as a food source, and kept at a temperature range of 24-26° C. Moistened corrugated cardboard rolls were used to retrieve termites from the cans. Once the termites migrated to the cardboard rolls, they were gently knocked from the cardboard rolls into clean rectangular plastic trays (40 cm×50 cm). Retrieved termites were isolated from debris by allowing them to cling to sheets of moistened paper towels. The average weight of each termite was 1.21 mg.
# To test for effectiveness of nootkatone, 1,10-dihydronootkatone and tetrahydronootkatone in repelling termites, a bioassay was conducted using Petri dishes (5 cm diameter and 1 cm height). To ensure adequate moisture for the termites, 1 ml of a hot agar solution (1.5% in H2O) was spread on the bottom of the Petri dish. After the agar cooled, sand that was treated as described below was spread on the bottom of the Petri dish. For the treated sand, purified 1,10-dihydronootkatone or tetrahydronootkatone were dissolved in 2 ml ethanol, and then diluted to achieve final concentrations of 1, 2, 5, 12.5, 25, 50, and 100 μg/g sand. The solution was mixed with 1 g sand that had been autoclaved and cooled. The control sand was autoclaved sand with only 200 μl ethanol added. One half of the surfaces in the Petri dishes were covered with 1 g treated sand, and the other half with 1 g untreated sand.
# The prepared Petri dishes were then used to evaluate the repelling activity against Formosan subterranean termites. Ten worker termites were added to each Petri dish, and the dishes were covered to eliminate light. Five replicate dishes were tested for each concentration and for the control. Termite position was recorded every 15 min during the first hour of testing by counting the number of termites observed on untreated sand. After the first hour, termite position was recorded each hour for 3 hr.
# Differences between the percent of termites on untreated sand and an expected value were statistically analyzed by a Chi-Square analysis, using an expected value of 50% and a significance level of p≦0.05.
smiles,measurement,setting,value
"C=C(C)C1CCC2=CC(=O)CC(C)C2(C)C1 (centres unmarked) [Nootkatone, 4,4a,5,6,7,8-hexahydro-6-isopropenyl-4,4a-dimethyl-2(3H)-naphthalenone]",activity against cockroaches,cockroaches,repellent
same,activity against ticks,ticks,significant repellent and toxicant
same,activity against ants,ants,significant repellent and toxicant
same,effect on fleas,fleas,not affected
same,"percent of termites on untreated sand vs expected value of 50% (Chi-Square, p≦0.05)","[1]; 2 μg/dish, 0.25 hour",−
same,"percent of termites on untreated sand vs expected value of 50% (Chi-Square, p≦0.05)","[1]; 2 μg/dish, 0.5 hour",−
same,"percent of termites on untreated sand vs expected value of 50% (Chi-Square, p≦0.05)","[1]; 2 μg/dish, 0.75 hour",−
same,"percent of termites on untreated sand vs expected value of 50% (Chi-Square, p≦0.05)","[1]; 2 μg/dish, 1 hour",−
same,"percent of termites on untreated sand vs expected value of 50% (Chi-Square, p≦0.05)","[1]; 2 μg/dish, 2 hour",−
same,"percent of termites on untreated sand vs expected value of 50% (Chi-Square, p≦0.05)","[1]; 2 μg/dish, 3 hour",−
same,"percent of termites on untreated sand vs expected value of 50% (Chi-Square, p≦0.05)","[1]; 5 μg/dish, 0.25 hour",−
same,"percent of termites on untreated sand vs expected value of 50% (Chi-Square, p≦0.05)","[1]; 5 μg/dish, 0.5 hour",−
same,"percent of termites on untreated sand vs expected value of 50% (Chi-Square, p≦0.05)","[1]; 5 μg/dish, 0.75 hour",−
same,"percent of termites on untreated sand vs expected value of 50% (Chi-Square, p≦0.05)","[1]; 5 μg/dish, 1 hour",−
same,"percent of termites on untreated sand vs expected value of 50% (Chi-Square, p≦0.05)","[1]; 5 μg/dish, 2 hour",−
same,"percent of termites on untreated sand vs expected value of 50% (Chi-Square, p≦0.05)","[1]; 5 μg/dish, 3 hour",−
same,"percent of termites on untreated sand vs expected value of 50% (Chi-Square, p≦0.05)","[1]; 12.5 μg/dish, 0.25 hour",−
same,"percent of termites on untreated sand vs expected value of 50% (Chi-Square, p≦0.05)","[1]; 12.5 μg/dish, 0.5 hour",−
same,"percent of termites on untreated sand vs expected value of 50% (Chi-Square, p≦0.05)","[1]; 12.5 μg/dish, 0.75 hour",−
same,"percent of termites on untreated sand vs expected value of 50% (Chi-Square, p≦0.05)","[1]; 12.5 μg/dish, 1 hour",−
same,"percent of termites on untreated sand vs expected value of 50% (Chi-Square, p≦0.05)","[1]; 12.5 μg/dish, 2 hour",−
same,"percent of termites on untreated sand vs expected value of 50% (Chi-Square, p≦0.05)","[1]; 12.5 μg/dish, 3 hour",−
same,"percent of termites on untreated sand vs expected value of 50% (Chi-Square, p≦0.05)","[1]; 25 μg/dish, 0.25 hour",−
same,"percent of termites on untreated sand vs expected value of 50% (Chi-Square, p≦0.05)","[1]; 25 μg/dish, 0.5 hour",−
same,"percent of termites on untreated sand vs expected value of 50% (Chi-Square, p≦0.05)","[1]; 25 μg/dish, 0.75 hour",−
same,"percent of termites on untreated sand vs expected value of 50% (Chi-Square, p≦0.05)","[1]; 25 μg/dish, 1 hour",−
same,"percent of termites on untreated sand vs expected value of 50% (Chi-Square, p≦0.05)","[1]; 25 μg/dish, 2 hour",−
same,"percent of termites on untreated sand vs expected value of 50% (Chi-Square, p≦0.05)","[1]; 25 μg/dish, 3 hour",−
same,"percent of termites on untreated sand vs expected value of 50% (Chi-Square, p≦0.05)","[1]; 50 μg/dish, 0.25 hour",+
same,"percent of termites on untreated sand vs expected value of 50% (Chi-Square, p≦0.05)","[1]; 50 μg/dish, 0.5 hour",−
same,"percent of termites on untreated sand vs expected value of 50% (Chi-Square, p≦0.05)","[1]; 50 μg/dish, 0.75 hour",−
same,"percent of termites on untreated sand vs expected value of 50% (Chi-Square, p≦0.05)","[1]; 50 μg/dish, 1 hour",+
same,"percent of termites on untreated sand vs expected value of 50% (Chi-Square, p≦0.05)","[1]; 50 μg/dish, 2 hour",−
same,"percent of termites on untreated sand vs expected value of 50% (Chi-Square, p≦0.05)","[1]; 50 μg/dish, 3 hour",−
same,"percent of termites on untreated sand vs expected value of 50% (Chi-Square, p≦0.05)","[1]; 100 μg/dish, 0.25 hour",+
same,"percent of termites on untreated sand vs expected value of 50% (Chi-Square, p≦0.05)","[1]; 100 μg/dish, 0.5 hour",+
same,"percent of termites on untreated sand vs expected value of 50% (Chi-Square, p≦0.05)","[1]; 100 μg/dish, 0.75 hour",+
same,"percent of termites on untreated sand vs expected value of 50% (Chi-Square, p≦0.05)","[1]; 100 μg/dish, 1 hour",+
same,"percent of termites on untreated sand vs expected value of 50% (Chi-Square, p≦0.05)","[1]; 100 μg/dish, 2 hour",+
same,"percent of termites on untreated sand vs expected value of 50% (Chi-Square, p≦0.05)","[1]; 100 μg/dish, 3 hour",+
same,concentration required for a significant effect of the treated sand on termite distribution,[1]; time periods greater than 1 hr,100 μg/dish
